# Measured values from patent US6875758B2, “Method of treating hyperlipidemic and hyperglycemic conditions in mammals using pregnadienols and pregnadienones” (Council of Scientific & Industrial Research, priority 1999, dated 2005).
# Key:
# [1] = molecular target: T1, Progestin Receptor (Homo sapiens, UniProt P06401); conditions: cited from earlier work; for Progestin Receptor Binding Affinity: relative binding affinity
# T1 sequence (P06401 1-933): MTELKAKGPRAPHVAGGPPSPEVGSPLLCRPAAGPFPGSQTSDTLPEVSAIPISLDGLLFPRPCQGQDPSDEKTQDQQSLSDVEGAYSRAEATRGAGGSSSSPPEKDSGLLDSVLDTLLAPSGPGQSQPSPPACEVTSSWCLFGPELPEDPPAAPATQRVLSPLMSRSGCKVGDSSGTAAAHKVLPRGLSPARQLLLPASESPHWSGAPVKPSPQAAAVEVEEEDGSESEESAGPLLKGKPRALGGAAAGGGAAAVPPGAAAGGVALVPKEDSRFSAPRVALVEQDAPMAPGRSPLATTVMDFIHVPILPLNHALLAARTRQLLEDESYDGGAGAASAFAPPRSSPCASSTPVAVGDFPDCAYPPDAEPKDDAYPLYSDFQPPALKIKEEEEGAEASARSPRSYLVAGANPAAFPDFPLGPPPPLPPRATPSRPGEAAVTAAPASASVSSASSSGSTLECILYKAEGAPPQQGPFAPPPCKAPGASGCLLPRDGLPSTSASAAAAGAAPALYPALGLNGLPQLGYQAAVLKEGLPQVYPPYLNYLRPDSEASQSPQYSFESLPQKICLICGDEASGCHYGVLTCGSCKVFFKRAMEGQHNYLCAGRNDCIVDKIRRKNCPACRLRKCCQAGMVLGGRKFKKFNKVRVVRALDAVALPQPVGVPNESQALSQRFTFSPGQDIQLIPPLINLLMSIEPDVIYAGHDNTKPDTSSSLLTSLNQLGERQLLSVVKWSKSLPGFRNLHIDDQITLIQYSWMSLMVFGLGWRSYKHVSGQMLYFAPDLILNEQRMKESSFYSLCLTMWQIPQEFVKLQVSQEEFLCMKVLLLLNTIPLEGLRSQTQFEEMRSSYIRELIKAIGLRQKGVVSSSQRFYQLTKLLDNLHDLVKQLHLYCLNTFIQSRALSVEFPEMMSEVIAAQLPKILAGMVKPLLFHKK
# [2] = molecular target: T2, Androgen Receptor (Homo sapiens, UniProt P10275); conditions: relative binding affinity; cited from earlier work
# T2 sequence (P10275 1-920): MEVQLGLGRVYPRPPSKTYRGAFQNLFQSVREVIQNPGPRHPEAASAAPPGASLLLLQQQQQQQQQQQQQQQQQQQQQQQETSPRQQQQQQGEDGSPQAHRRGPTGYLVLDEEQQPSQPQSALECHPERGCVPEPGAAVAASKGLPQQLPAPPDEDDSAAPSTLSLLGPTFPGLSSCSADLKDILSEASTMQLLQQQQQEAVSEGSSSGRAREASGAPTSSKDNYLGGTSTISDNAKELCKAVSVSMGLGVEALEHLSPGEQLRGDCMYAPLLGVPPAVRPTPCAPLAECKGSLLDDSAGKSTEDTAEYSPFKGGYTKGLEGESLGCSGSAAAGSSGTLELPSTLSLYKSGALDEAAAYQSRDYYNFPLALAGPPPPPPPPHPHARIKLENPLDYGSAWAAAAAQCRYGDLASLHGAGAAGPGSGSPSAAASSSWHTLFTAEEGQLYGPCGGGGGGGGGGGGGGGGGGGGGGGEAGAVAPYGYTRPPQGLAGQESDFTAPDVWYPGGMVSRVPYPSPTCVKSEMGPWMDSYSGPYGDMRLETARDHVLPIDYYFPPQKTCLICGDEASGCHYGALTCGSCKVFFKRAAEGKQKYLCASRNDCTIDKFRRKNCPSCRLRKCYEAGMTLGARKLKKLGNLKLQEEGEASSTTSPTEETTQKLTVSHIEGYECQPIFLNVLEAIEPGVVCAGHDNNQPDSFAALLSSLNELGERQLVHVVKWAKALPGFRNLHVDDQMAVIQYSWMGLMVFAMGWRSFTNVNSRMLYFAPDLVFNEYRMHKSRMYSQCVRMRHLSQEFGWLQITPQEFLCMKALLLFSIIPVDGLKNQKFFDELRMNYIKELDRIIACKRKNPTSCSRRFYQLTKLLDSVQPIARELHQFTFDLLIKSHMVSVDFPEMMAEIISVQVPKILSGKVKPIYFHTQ
# [3] = system: endometrial proliferation; assay: Clauberg assay, endometrial proliferation on McPhail scale; type: in vivo; conditions: 50 mg/kg
# Description: The progestational activity was also tested in vivo by Clauberg assay method. The degree of endometrial proliferation was estimated on the McPhail scale where 3′ or 4′ was considered as a full progestational effect.
Structure (SMILES),Progestin Receptor Binding Affinity [1],Androgen Receptor Binding Affinity [2],Selectivity Index (A/P ratio) ([1]; androgen vs progestin receptor),progestational activity [3]
C#C[C@]1(O)CC[C@H]2[C@@H]3CCC4=CC(=O)CC[C@@H]4[C@H]3C(=C)C[C@@]21CC [3-Keto-desogestrel],8.6,–,–,–
C#C[C@]1(O)C=C[C@H]2[C@@H]3CCC4=CC(=O)CC[C@@H]4[C@H]3CC[C@@]21CC [Gestodene],9.21,0.154,28,–
"CC(=O)[C@H]1CC[C@H]2[C@@H]3CCC4=CC(=O)CC[C@]4(C)[C@H]3CC[C@]12C [Progesterone, reference compound]",–,–,–,marked progestational activity
